This test relates to GTL16 cells. The test can be described thus: GTL16 cell viability assay (CellTiter Glo). The following applies: read-out: GTL-16 Proliferation IC50; GTL16 cells, 24 hours. A general note: Cellular ATP, detected with luciferase, serves as a proxy for viable cell number.

Among the data in US9062045B2, “Triazolopyridine compounds” (Novartis AG, priority 2012, dated 2015) are IC50 values, retold here.

Protocol: GTL16 Cell Viability Assay:
GTL16 expresses high level of c-Met receptor tyrosine kinase due to the gene amplification.
GTL16 cells were seeded in DMEM medium with 10% FBS and 1% Pene. & Strep. at 5000 cells/well/90 μL in 96 well plate and incubated overnight for attachment at 37° C. in 5% CO2 incubator. 10-fold serials dilutions of compounds were added to the cell as 10 μL/well. The final assay volume was 100 μl/well. The assay plates were incubated at 37° C. in 5% CO2 incubator for 24 hours. […] The chemiluminescent light unit was read in Envision from Perkin Elmer. All the tests were run at triplicates. The IC50 was calculated using Spotfire software.

Regarding `OCCn1cc(-c2cnc3nnn(Cc4ccc5ncccc5c4)c3n2)cn1` [Comparator No. 3 (PF-04217903), 2-[4-(3-Quinolin-6-ylmethyl-3H-[1,2,3]triazolo[4,5-b]pyrazin-5-yl)-pyrazol-1-yl]-ethanol, reference compound], the IC50 is under 10 nM. As to `Cn1cc(-c2ccc3nnc(Sc4ccc5ncc(N6CCCC(N)C6)cc5c4)n3c2)cn1` (stereo not shown) [Example 10, 1-(6-(6-(1-Methyl-1H-pyrazol-4-yl)-[1,2,4]triazolo[4,3-a]pyridin-3-ylthio)quinolin-3-yl)piperidin-3-amine], the IC50 stood at 21 nM.

Regarding `Cn1cc(-c2ccc3nnc(Sc4ccc5ncc(N6CCC(N)CC6)cc5c4)n3c2)cn1` [Example 21, 1-(6-(6-(1-Methyl-1H-pyrazol-4-yl)-[1,2,4]triazolo[4,3-a]pyridin-3-ylthio)quinolin-3-yl)piperidin-4-amine], the IC50 was determined as 36 nM. Regarding `COC1CCN(c2cnc3ccc(Sc4nnc5ccc(-c6cnn(C)c6)cn45)cc3c2)CC1` [Example 43, 3-(4-Methoxypiperidin-1-yl)-6-(6-(1-methyl-1H-pyrazol-4-yl)-[1,2,4]triazolo[4,3-a]pyridin-3-ylthio)quinoline], the IC50 turned out to be 0.3 nM. For `Cn1cc(-c2cc(F)c3nnc(Sc4ccc5ncc(NCCO)cc5c4)n3c2)cn1` [Example 54, 2-(6-(8-Fluoro-6-(1-methyl-1H-pyrazol-4-yl)-[1,2,4]triazolo[4,3-a]pyridin-3-ylthio)quinolin-3-ylamino)ethanol] the value was 14 nM; for `Cn1cc(-c2cc(F)c3nnc(Sc4ccc5ncc(N6CCOCC6)cc5c4)n3c2)cn1` [Example 70, 4-(6-(8-Fluoro-6-(1-methyl-1H-pyrazol-4-yl)-[1,2,4]triazolo[4,3-a]pyridin-3-ylthio)quinolin-3-yl)morpholine], 1 nM; for `CN1CCN(c2cnc3ccc(Sc4nnc5ccc(-c6cnn(C)c6)cn45)cc3c2)CC1` [Example 74, 3-(4-Methyl-piperazin-1-yl)-6-[6-(1-methyl-1H-pyrazol-4-yl)-[1,2,4]triazolo[4,3-a]pyridin-3-ylsulfanyl]-quinoline], 2 nM.
